How the values were obtained:
5-HT4B = molecular target: T1, 5-HT4B (Homo sapiens, UniProt Q13639); experiment: GPCR Profiler; assay type: cell-based
T1 construct: host or cells: Chem-1 cells with promiscuous Gα15

MRGX1 = molecular target: T2, MRGX1 (Homo sapiens, UniProt Q96LB2); experiment: GPCR Profiler; assay type: cell-based
T2 construct: host or cells: Chem-1 cells expressing Gα15

CSNK2A1 = CSNK2A1 (Homo sapiens, UniProt P68400); experiment: KinomeScan; assay type: binding; conditions: read-out: % Control
[1] = molecular target: T3, ABL1(T315I)-phosphorylated (Homo sapiens, UniProt P00519, T315I); experiment: KinomeScan; assay type: binding; conditions: read-out: % Control
T3 construct: purchased DiscoveRx

[2] = molecular target: T4, JAK1(JH1domain-catalytic) (Homo sapiens, UniProt P23458); experiment: KinomeScan; assay type: binding; conditions: read-out: % Control
T4 construct: JAK1(JH1domain-catalytic); purchased DiscoveRx (Fremont, CA)

TRKC = molecular target: T5, TRKC (Homo sapiens, UniProt Q16288); experiment: KinomeScan; assay type: binding; conditions: read-out: % Control
T5 construct: purchased DiscoveRx (Fremont, CA)

XCR1 = molecular target: T6, XCR1 (Homo sapiens, UniProt P46094); experiment: GPCR Profiler; assay type: cell-based
T6 construct: host or cells: Chem-1 cells expressing Galpha15

SBK1 = molecular target: T7, SBK1 (Homo sapiens, UniProt Q52WX2); experiment: KinomeScan; assay type: binding; conditions: read-out: % Control
T7 construct: purchased DiscoveRx (Fremont, CA)

CLK3 = CLK3 (Homo sapiens, UniProt P49761); experiment: KinomeScan; assay type: binding; conditions: read-out: % Control
EGFR(L861Q) = molecular target: T8, EGFR(L861Q) (Homo sapiens, UniProt P00533, L861Q); experiment: KinomeScan; assay type: binding; conditions: read-out: % Control
T8 construct: purchased DiscoveRx (Fremont, CA), KinomeScan service

DMPK = molecular target: T9, DMPK (Homo sapiens, UniProt Q09013); experiment: KinomeScan; assay type: binding; conditions: read-out: % Control
T9 construct: purchased DiscoveRx (Fremont, CA), KinomeScan service

KIT = molecular target: T10, KIT (Homo sapiens, UniProt P10721); experiment: KinomeScan; assay type: binding; conditions: read-out: % Control
T10 construct: purchased DiscoveRx

CGRP1 = molecular target: T11, CGRP1 (Homo sapiens, UniProt O60894+Q16602); experiment: GPCR Profiler; assay type: cell-based
T11 construct: host or cells: Chem-1 cells with Gα15

[3] = molecular target: T12, ABL1(F317I)-nonphosphorylated (Homo sapiens, UniProt P00519, F317I); experiment: KinomeScan; assay type: binding; conditions: read-out: % Control
T12 construct: purchased DiscoveRx

[4] = molecular target: T13, ABL1(H396P)-nonphosphorylated (Homo sapiens, UniProt P00519, H396P); experiment: KinomeScan; assay type: binding; conditions: read-out: % Control
T13 construct: purchased DiscoveRx

GLP-1 = molecular target: T14, GLP-1 (Homo sapiens, UniProt P43220); experiment: GPCR Profiler; assay type: cell-based
T14 construct: host or cells: Chem-1 cells expressing Gα15

MrgD = molecular target: T15, MrgD (Homo sapiens, UniProt Q8TDS7); experiment: GPCR Profiler; assay type: cell-based
T15 construct: host or cells: Chem-1 cells expressing Gα15

EPHA8 = molecular target: T16, EPHA8 (Homo sapiens, UniProt P29322); experiment: KinomeScan; assay type: binding; conditions: read-out: % Control
T16 construct: purchased DiscoveRx (Fremont, CA)

CCR6 = molecular target: T17, CCR6 (Homo sapiens, UniProt P51684); experiment: GPCR Profiler; assay type: cell-based
T17 construct: host or cells: Chem-1 cells with Gα15

EPHB4 = molecular target: T18, EPHB4 (Homo sapiens, UniProt P54760); experiment: KinomeScan; assay type: binding; conditions: read-out: % Control
T18 construct: purchased DiscoveRx (Fremont, CA)

IP1 = molecular target: T19, IP1 (Homo sapiens, UniProt P43119); experiment: GPCR Profiler; assay type: cell-based
T19 construct: host or cells: Chem-1 cells with promiscuous Gα15

EPHA2 = molecular target: T20, EPHA2 (Homo sapiens, UniProt P29317); experiment: KinomeScan; assay type: binding; conditions: read-out: % Control
T20 construct: purchased DiscoveRx (Fremont, CA)

MAPKAPK5 = molecular target: T21, MAPKAPK5 (Homo sapiens, UniProt Q8IW41); experiment: KinomeScan; assay type: binding; conditions: read-out: % Control
T21 construct: purchased DiscoveRx (Fremont, CA)

[5] = molecular target: T22, ABL1(T315I)-nonphosphorylated (Homo sapiens, UniProt P00519, T315I); experiment: KinomeScan; assay type: binding; conditions: read-out: % Control
T22 construct: purchased DiscoveRx

MARK3 = molecular target: T23, MARK3 (Homo sapiens, UniProt P27448); experiment: KinomeScan; assay type: binding; conditions: read-out: % Control
T23 construct: purchased DiscoveRx (Fremont, CA)

CX3CR1 = molecular target: T24, CX3CR1 (Homo sapiens, UniProt P49238); experiment: GPCR Profiler; assay type: cell-based
T24 construct: host or cells: Chem-1 cells with Gα15
T24 sequence (P49238 whole entry, species assumed): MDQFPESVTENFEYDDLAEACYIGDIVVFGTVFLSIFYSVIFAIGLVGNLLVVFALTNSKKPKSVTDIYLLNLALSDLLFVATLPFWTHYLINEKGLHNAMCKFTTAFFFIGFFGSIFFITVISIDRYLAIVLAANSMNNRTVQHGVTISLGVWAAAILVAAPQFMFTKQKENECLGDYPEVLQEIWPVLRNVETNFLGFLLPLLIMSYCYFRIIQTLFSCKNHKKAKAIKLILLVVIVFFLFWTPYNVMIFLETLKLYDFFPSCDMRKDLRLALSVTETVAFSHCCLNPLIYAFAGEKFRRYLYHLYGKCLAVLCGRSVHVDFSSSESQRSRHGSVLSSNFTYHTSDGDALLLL

T15 sequence (Q8TDS7 whole entry, species assumed): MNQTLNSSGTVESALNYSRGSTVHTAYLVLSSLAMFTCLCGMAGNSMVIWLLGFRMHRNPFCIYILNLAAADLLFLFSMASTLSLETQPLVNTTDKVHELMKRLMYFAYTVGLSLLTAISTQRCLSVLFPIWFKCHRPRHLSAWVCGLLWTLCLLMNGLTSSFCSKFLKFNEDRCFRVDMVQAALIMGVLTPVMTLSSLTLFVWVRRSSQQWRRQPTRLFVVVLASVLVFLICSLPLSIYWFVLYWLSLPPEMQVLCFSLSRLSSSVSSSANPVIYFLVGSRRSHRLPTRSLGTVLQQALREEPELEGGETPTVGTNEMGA
T17 sequence (P51684 whole entry): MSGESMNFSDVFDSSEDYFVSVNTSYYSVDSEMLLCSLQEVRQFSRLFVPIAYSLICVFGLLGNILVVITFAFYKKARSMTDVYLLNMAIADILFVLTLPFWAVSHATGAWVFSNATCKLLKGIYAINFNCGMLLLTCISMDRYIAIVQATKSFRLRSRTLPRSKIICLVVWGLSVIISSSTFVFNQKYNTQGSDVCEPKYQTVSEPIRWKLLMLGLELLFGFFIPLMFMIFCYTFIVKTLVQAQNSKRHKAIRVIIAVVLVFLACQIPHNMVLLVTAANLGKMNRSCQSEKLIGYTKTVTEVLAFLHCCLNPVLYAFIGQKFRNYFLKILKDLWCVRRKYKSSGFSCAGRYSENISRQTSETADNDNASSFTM
T1 sequence (Q13639 whole entry): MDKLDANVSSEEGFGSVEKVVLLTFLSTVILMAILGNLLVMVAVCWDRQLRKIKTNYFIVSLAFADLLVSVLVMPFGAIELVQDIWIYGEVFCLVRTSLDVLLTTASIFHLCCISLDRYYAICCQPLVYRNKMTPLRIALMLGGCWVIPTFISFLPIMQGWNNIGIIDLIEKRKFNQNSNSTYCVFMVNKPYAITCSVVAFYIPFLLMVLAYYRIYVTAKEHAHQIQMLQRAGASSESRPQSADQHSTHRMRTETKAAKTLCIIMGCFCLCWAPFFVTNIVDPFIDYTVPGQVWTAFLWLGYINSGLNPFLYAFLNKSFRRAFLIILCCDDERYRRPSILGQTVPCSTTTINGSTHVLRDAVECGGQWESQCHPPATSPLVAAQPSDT
T14 sequence (P43220 24-463): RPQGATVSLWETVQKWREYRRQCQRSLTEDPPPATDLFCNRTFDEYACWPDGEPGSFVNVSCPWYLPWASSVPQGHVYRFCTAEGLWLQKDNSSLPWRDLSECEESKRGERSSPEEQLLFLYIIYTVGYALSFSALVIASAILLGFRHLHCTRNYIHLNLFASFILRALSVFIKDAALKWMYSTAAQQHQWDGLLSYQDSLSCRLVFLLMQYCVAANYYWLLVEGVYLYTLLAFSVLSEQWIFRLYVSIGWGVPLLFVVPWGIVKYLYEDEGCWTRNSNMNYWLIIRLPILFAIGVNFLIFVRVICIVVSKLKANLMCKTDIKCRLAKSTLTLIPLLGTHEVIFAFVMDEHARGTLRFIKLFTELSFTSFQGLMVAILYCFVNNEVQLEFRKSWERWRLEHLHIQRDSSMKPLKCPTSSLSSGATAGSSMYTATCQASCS
T2 sequence (Q96LB2 whole entry, species assumed): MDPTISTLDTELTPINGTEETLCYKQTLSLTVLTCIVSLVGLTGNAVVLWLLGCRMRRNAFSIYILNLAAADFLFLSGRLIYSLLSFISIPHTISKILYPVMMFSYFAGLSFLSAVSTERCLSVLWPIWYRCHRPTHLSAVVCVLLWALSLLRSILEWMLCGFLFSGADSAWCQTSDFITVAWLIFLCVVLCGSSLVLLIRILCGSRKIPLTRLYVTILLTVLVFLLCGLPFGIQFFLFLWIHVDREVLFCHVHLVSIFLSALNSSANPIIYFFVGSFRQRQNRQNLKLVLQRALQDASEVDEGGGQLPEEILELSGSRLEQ
T19 sequence (P43119 whole entry): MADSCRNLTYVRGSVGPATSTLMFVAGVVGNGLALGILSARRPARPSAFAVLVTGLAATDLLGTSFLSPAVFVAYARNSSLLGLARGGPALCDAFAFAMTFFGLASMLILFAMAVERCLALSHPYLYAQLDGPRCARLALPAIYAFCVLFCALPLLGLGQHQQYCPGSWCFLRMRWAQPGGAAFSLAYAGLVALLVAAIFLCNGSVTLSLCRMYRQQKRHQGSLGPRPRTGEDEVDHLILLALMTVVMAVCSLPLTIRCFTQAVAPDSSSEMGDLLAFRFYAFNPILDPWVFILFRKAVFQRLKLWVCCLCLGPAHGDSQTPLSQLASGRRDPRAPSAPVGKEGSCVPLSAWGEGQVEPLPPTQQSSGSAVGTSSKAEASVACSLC
T11 sequence (Q16602 23-461): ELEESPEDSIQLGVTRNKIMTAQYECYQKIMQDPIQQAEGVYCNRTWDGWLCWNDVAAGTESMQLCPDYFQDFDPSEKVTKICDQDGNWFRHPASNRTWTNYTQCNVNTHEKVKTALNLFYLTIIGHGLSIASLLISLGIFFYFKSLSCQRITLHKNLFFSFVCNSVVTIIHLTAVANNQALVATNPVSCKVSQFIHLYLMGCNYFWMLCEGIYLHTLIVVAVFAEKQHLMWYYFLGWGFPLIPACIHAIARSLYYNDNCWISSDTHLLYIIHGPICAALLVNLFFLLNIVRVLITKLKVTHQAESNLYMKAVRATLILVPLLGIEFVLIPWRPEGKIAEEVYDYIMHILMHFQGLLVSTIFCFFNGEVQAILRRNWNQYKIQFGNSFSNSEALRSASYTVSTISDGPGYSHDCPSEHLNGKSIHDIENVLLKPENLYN
T11 sequence (O60894 27-148 partner): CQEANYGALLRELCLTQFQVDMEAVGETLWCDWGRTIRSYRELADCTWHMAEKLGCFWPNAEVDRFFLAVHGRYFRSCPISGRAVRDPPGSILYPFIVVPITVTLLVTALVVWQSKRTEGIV
T6 sequence (P46094 whole entry, species assumed): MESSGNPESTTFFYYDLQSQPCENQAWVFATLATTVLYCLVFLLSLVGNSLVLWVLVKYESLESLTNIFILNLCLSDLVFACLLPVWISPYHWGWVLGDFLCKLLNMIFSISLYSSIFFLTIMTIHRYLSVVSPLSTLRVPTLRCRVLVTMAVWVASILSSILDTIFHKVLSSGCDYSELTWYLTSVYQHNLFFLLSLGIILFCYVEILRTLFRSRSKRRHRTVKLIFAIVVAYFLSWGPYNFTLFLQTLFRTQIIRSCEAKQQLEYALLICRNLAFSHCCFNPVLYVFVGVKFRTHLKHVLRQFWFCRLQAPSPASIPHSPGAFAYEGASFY
T20 sequence (P29317 24-976): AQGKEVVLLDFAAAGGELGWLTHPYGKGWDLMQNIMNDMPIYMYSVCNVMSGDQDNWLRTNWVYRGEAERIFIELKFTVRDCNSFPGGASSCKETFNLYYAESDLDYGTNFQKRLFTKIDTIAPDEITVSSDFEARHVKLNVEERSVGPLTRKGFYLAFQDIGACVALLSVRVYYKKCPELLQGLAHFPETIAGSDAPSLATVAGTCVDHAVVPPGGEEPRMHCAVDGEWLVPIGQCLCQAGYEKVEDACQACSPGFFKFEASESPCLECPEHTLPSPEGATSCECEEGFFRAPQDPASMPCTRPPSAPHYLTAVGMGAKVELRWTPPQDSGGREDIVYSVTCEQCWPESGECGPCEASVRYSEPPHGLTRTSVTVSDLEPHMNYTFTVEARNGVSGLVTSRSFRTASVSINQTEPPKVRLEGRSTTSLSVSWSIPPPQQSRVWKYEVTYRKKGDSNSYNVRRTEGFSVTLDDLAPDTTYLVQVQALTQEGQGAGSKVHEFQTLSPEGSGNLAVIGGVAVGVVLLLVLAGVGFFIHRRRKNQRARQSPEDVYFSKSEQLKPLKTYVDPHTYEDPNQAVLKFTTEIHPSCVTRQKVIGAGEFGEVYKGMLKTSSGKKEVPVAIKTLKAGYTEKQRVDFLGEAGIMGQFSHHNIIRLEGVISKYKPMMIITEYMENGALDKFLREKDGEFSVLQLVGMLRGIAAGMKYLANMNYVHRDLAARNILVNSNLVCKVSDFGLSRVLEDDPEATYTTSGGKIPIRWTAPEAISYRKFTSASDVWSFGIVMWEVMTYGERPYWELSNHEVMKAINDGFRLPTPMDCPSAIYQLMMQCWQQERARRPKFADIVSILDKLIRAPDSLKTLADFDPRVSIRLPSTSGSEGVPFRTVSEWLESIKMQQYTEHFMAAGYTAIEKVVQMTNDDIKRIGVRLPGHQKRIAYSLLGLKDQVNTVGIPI
T21 sequence (Q8IW41 whole entry): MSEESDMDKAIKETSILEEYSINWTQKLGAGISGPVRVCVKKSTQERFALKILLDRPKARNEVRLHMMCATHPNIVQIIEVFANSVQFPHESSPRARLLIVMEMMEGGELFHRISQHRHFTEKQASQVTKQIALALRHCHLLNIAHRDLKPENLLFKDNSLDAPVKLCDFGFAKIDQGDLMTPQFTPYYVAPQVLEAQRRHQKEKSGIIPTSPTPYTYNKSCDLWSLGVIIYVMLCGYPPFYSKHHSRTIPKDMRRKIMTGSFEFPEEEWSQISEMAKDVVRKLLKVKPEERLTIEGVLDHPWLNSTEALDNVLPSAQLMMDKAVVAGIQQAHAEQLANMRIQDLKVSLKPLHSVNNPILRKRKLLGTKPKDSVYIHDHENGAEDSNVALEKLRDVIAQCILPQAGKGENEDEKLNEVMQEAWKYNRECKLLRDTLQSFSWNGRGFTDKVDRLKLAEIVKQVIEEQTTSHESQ

In the case of `CCc1ccc2c(c1)C1(NN=C(c3cccc4ccccc34)S1)C(=O)N2` (centres unmarked) [OGM1, 5-ethyl-5′-naphthalen-1-ylspiro[1H-indole-3,2′-3H-1,3,4-thiadiazole]-2-one], the Antagonism (5-HT4B; 10 uM) was −24.1, the Agonism (5-HT4B; 12.5 uM) was 4.1 and the Antagonism (MRGX1; 10 uM) was 2.3. It also gave an Agonism (MRGX1; 12.5 uM) of −0.1, a remaining binding at 10 µM (CSNK2A1) of 96% and a remaining binding at 10 µM [1] of 72%. It also gave a remaining binding at 10 µM [2] of 59%, a remaining binding at 10 µM (TRKC) of 62% and an Antagonism (XCR1; 10 uM) of 1.8. The Agonism (XCR1; 12.5 uM) was 0.1, the remaining binding at 10 µM (SBK1) was 100% and the remaining binding at 10 µM (CLK3) was 100%. The remaining binding at 10 µM (EGFR(L861Q)) was 100%, the remaining binding at 10 µM (DMPK) was 86% and the remaining binding at 10 µM (KIT) was 79%. For the same molecule, the Antagonism (CGRP1; 10 uM) was −2.3, the Agonism (CGRP1; 12.5 uM) was 0.5 and the remaining binding at 10 µM [3] was 100%. For the same molecule, the remaining binding at 10 µM [4] was 88%, the Antagonism (GLP-1; 10 uM) was 2.1 and the Agonism (GLP-1; 12.5 uM) was −0.3. For the same molecule, the Antagonism (MrgD; 10 uM) was −2.2, the Agonism (MrgD; 12.5 uM) was −0.1 and the remaining binding at 10 µM (EPHA8) was 100%. The Antagonism (CCR6; 10 uM) was 5.1, the Agonism (CCR6; 12.5 uM) was 1.5 and the remaining binding at 10 µM (EPHB4) was 100%. It also gave an Antagonism (IP1; 10 uM) of −2, an Agonism (IP1; 12.5 uM) of −0.5 and a remaining binding at 10 µM (EPHA2) of 100%. The remaining binding at 10 µM (MAPKAPK5) was 86%, the remaining binding at 10 µM [5] was 73% and the remaining binding at 10 µM (MARK3) was 100%. The Antagonism (CX3CR1; 10 uM) was −12.1 and the Agonism (CX3CR1; 12.5 uM) was 0.3.
